The values below come from patent US10154974B1, “Use of abscisic acid for the prevention and treatment of malaria” (The Regents of the University of California, priority 2015, dated 2018).

The test system of one assay is liver. Briefly: Liver histology scoring. The format is in vivo, mice. Here is the method: Mice were euthanized on day 7 post-infection. Blood was collected by heart puncture, spun at 8,000 rpm for 8 minutes and the plasma collected for ABA quantification. Livers and spleens were collected, retained in 10% formalin for 24 hours and then stored in 70% ethanol before sectioning and staining with hematoxylin and eosin. Liver sections were blindly scored on a scale from 0 to 3 for pigment levels, Kupffer cell density, portal tract inflammation, hemozoin deposition, extramedullary hematopoiesis, sinusoidal leukocyte density, sinusoidal adherence of leukocytes, and presence of microabscesses. Spleen sections were blindly scored on a scale from 0 to 3 for hyperplasia, extramedullary hematopoiesis, pigment, and levels of histiocytes and neutrophils. Pathology scores of control and treated mice were analyzed by unpaired t-test.

Another assay relates to P. yoelii 17XNL. Briefly: P. yoelii transmission from ABA-supplemented mice to A. stephensi (oocyst counts). The format is in vivo. Here is the method: Anopheles stephensi Liston (Indian wild-type strain) were reared and maintained at 27° C. and 75% humidity. For all feeding experiments, 3-5-day-old female mosquitoes were maintained on water pads for 24 hours and then allowed to bloodfeed for 30 minutes on control or ABA-supplemented P. yoelii 17XNL-infected mice. Cohorts of 50 mosquitoes were allowed to feed on each mouse at 5 days post-infection. Immediately after feeding non-engorged mosquitoes were removed. Ten days post-feeding, midguts were dissected, stained with 0.5% mercurochrome, and oocysts counted by microscopy.

The next assay deals with P. falciparum 3D7. Description: P. falciparum gametocyte formation assay. The format is cell-based. Conditions: 10 nM or 100 nM ABA, 6, 8 or 10 days post culture synchronization. The method, then: Studies of the effects of ABA on gametocyte formation were performed with P. falciparum 3D7 engineered to express GFP under the control of alpha tubulin II and Pfs25 promoters. Parasite cultures were synchronized using sorbitol. At 48 hours post-synchronization, 200 μL aliquots of parasite culture and complete RPMI medium were placed in a 96-well flat-bottomed plate and treated with 10 nM ABA, 100 nM ABA, or a diluent control. Media and treatments were refreshed every 48 hours. At 4, 6 and 8 days after the start of treatment, separate aliquots were harvested, media was removed, and replaced with 10% formalin for 1 hour at room temperature. Formalin was removed and replaced with PBS before gametocyte levels were measured by flow cytometry using a FACS Calibur flow cytometer (BD Biosciences) with a GFP filter. Four replicates were carried out, each using a separate parasite culture passage. Relative changes in gametocyte numbers were normalized to controls set at 1 and analyzed by one-sample t-test.

A further assay concerns AsNOS. Description: AsNOS transcript levels in mosquito midgut. The format is in vivo, Anopheles stephensi. Conditions: midguts, relative to controls, 4-6 hours post-feeding. The method, then:
For mosquito immune gene expression, 20 midguts were dissected from mosquitoes in each treatment group at 1, 2, 4, 6, 8 and 24 hours post-feeding. Midguts were sonicated and stored in Trizol at −20° C. for up to a week before RNA was extracted according to manufacturer's instructions. cDNA synthesis was carried out using QantiTect Reverse Transcription Kit (Qiagen) and 200 ng of cDNA used per reaction for qRT-PCR with Sybr Green (Applied Biosystems). Fold changes in expression levels were calculated using the comparative threshold cycle method. Data were normalized to the housekeeping gene ribosomal protein S7 and to the control treatment. Primers and cycling conditions for AsNOS, defensin, LRIM, TEP1, and APL1 were as previously described (Hauck E S, et al. Microbes Infect. 2013; 15:775-87). […] Samples were analyzed in triplicate with 250 ng of cDNA per reaction to confirm uniformity of amplification. […] All expression data were analyzed by one sample t-test.
Transcript levels of a panel of immune genes previously described to play a role in the mosquito immune response to malaria parasites were examined. […] Mosquitoes were provided with a P. falciparum-infected bloodmeal supplemented with 100 nM ABA or with an equivalent volume of diluent as control, then analyzed at 1-24 hours post feeding.

In the next assay the test system is P. falciparum. Briefly: Pfs16 and Pfs25 expression in parasite-fed mosquito midguts (parasite death). In kind it is in vivo. The following applies: between 18 and 24 hours post-bloodmeal. Here is the method:
Expression levels are shown of P. falciparum genes Pfs16 and Pfs25 in ABA-supplemented parasite-fed mosquito midguts. Data are normalized to mosquito and parasite ribosomal genes s7 and A18s. Each dot represents one replicate of 10 pooled midguts. Data are shown as fold change relative to control and were analyzed by one sample t-test. * p<0.05.

Another assay relates to MAPK (erk, jnk, p38). Briefly: MAPK phosphorylation in mosquito midgut. The format is in vivo, Anopheles stephensi. The following applies: 0 to 4 hours.
The next assay concerns Anopheles stephensi. Description: Mosquito egg production and viability. The format is in vivo. The following applies: single ABA-supplemented uninfected bloodmeal. The method, then:
The egg laying rate and hatch rate were analyzed using Fisher's exact test. […] Each dot represents the clutch size of a single mosquito. Clutch size was analyzed by unpaired t-test.

In assay [1] the test system is cytokine and immune-regulators. Briefly: Cytokine and immune-regulator mRNA in spleen and liver. The format is in vivo. Conditions: CD1 mice, day 4 and 7 post-infection. Here is the method: FIG. 23A-B illustrate that ABA supplementation alters cytokine expression in the spleen and liver of infected mice consistent with enhanced IgG production and inflammasome activation. Shown are mRNA levels of cytokine and immune-regulators in the spleen (FIG. 23A) and liver (FIG. 23B) of control and ABA-supplemented CD1 mice on day 4 and 7 post-infection with P. yoelii 17XNL. Data are shown as −Δct, normalized to β-actin and were analyzed by unpaired t-test. # p<0.1 * p<0.05 ** p<0.01.

Another assay has as its system IgG1 and IgG2a. Description: IgM and IgG antibody isotype concentrations in mouse plasma. In kind it is in vivo, mice. The following applies: days 9, 11 and 13 post-infection. Here is the method:
FIG. 24 illustrates that ABA supplementation increases levels of IgG1 and IgG2a in plasma. Concentrations are shown of IgM and IgG antibody isotypes in mouse plasma with and without ABA supplementation on days 9, 11 and 13 post-infection with P. yoelii 17XNL. Data were analyzed by unpaired t-test.

The mark [2] stands for this setting: infected mice, day 7 post-infection.

In the case of `CC1=CC(=O)CC(C)(C)[C@@]1(O)/C=C/C(C)=C\C(=O)O` (racemic) [ABA, (2Z,4E)-5-[(1S)-1-hydroxy-2,6,6-trimethyl-4-oxocyclohex-2-en-1-yl]-3-methylpenta-2,4-dienoic acid], in the assay with liver (absence of infection), the “number of sinusoidal leukocytes in the liver” value is “decreased”. In the assay on liver (setting [2]), the “adhered leukocytes in the liver” value is given as “fewer” and the “microabscesses in the liver” value is reported as “fewer”. The “hemozoin deposition, pigment, portal tract inflammation, extramedullary hematopoeisis, Kupffer cell density” value in the assay with liver (liver, P. yoelii-infected mice) is reported as “not altered”. Besides, the “mean oocysts per midgut” value in the assay on P. yoelii 17XNL (A. stephensi fed on ABA-supplemented mice on day 5) was found to be 12. Further, the “infection prevalence of mosquitoes” value with P. yoelii 17XNL (A. stephensi fed on ABA-supplemented mice on day 5, dissected ten days later) was 60.9%. Moreover, the reduction in prevalence in the assay with P. yoelii 17XNL (vs mosquitoes fed on control mice) was determined as 31.4%. Further, the gametocyte levels entry in the assay with P. falciparum 3D7 was “no effect”. For the same compound, in the assay on AsNOS, the “AsNOS transcript levels induction” value is “up to 13 fold”. Further, the “parasite death in mosquito midgut (Pfs16 and Pfs25 expression)” value in the assay with P. falciparum is recorded as “increased parasite death”. In addition, the MAPK phosphorylation result in the assay on MAPK (erk, jnk, p38) was “does not alter”. For the same compound, the “egg production or viability” value with Anopheles stephensi is recorded as “does not alter”. Also, the “cytokine expression in the spleen and liver” value in [1] is recorded as “alters”. For the same compound, in the assay with IgG1 and IgG2a, the “levels of IgG1 in plasma” value is reported as “increases” and the “levels of IgG2a in plasma” value is reported as “increases”.
